Measured values reported in US10647687B2, “Spiropyrazine derivatives as inhibitors of non-apoptotic regulated cell-death” (Helmholtz Zentrum München Deutsches Forschungszentrum für …, priority 2014, dated 2020).

Columns and labels:
SH-SY5Y cells = test: Specificity: TNF-alpha-induced apoptosis in SH-SY5Y cells (Example B.3); assay type: cell-based, human; conditions: compound 1 μM, TNF-alpha 10 ng/mL, FIG. 1
Protocol: SH-SY5Y cells were propagated and seeded in 96-well plates, together with compound N-1, N-2, N-10 of Table 1-N (FIG. 1A), compound O/S-6 or O/S-3 of Table 1-O/S (FIG. 1B), or compound C-12, C-91, or C-205 of Table 1-C (FIG. 1C) (each 1 μM) and TNF-alpha was added (final concentration: 10 ng/mL) to induce apoptosis. The apoptosis and pan-caspase inhibitor z-vad (final concentration: 50 μM) and the necroptosis inhibitor Necrostatin-1 (Nec-1; final concentration: 5 μM) were used for comparison. Control wells were established with vehicle only (DMSO), with and without treatment with TNF-alpha to induce apoptosis. Cells were incubated, and cell survival was detected and quantified. Percentage cell survival after TNF-alpha-induced apoptosis is shown (error bars indicate standard deviation (SD)).
Briefly, SH-SY5Y cells were propagated and seeded in 96-well plates, together with the compound to be tested (1 μM), generally as described in Example B.1, except they were seeded at 1,000 cell/well and instead of BSO, TNF-alpha (Invitrogen) was added to a final concentration of 10 ng/mL to induce apoptosis. The apoptosis and pan-caspase inhibitor Z-VAD-fink (Enzo Life Science; final concentration 50 μM) and the necroptosis inhibitor Necrostatin-1 (Nec-1; Enzo Life Science; final concentration 5 μM) were used for comparison. Control wells were established with vehicle only (DMSO), with and without treatment with TNF-alpha to induce apoptosis. Cells were incubated, and cell survival was detected and quantified as described in Example B.1.

C57BL/6 mice [1] = test: Liver ischemia-reperfusion injury model (Example C.1); assay type: in vivo, mouse; conditions: single i.p. dose 10 mg/Kg
Protocol: FIG. 2: Efficacy of a compound disclosed herein in an animal model of liver IRI. […] The “Sham” bar represents the data from control animals that were treated to the same protocol but without atraumatic clipping. Errors shown are SEM. Significant differences are seen between IRI+vehicle compared to IRI+Cmpd, as well as between IRI+vehicle compared to Sham+vehicle.
Briefly, to test such utility of compounds disclosed herein, ischemia is induced in the liver of 6-8 week old C57BL/6 mice (Charles River) by midline laparotomy whereby the blood supply to the left and median lobes of the liver is interrupted via atraumatic clipping for 90 min, followed by reperfusion for a period of 24 h. After reperfusion, but prior to final abdominal closure, animals are treated with a single i.p. dose of the compound to be tested (10 mg/Kg), or with vehicle (DMSO) as negative control. […] The “Sham” bar represents the data from control animals that were treated to the same protocol but without atraumatic clipping.

C57BL/6 mice [2] = test: Kidney ischemia-reperfusion injury model (Example C.2); assay type: in vivo, mouse; conditions: dose of both 1 and 10 mg/kg, compared to vehicle control, FIG. 3
Protocol: FIG. 3: Efficacy of a compound disclosed herein in an animal model of kidney IRI.
Briefly, to test such utility of compounds disclosed herein, ischemia is induced in the kidney of 6-8 week old C57BL/6 mice by interruption of the blood supply to the kidney via reversible clipping of the Arteria renalis for 30 min, followed by reperfusion for a period of 24 h. Mice are treated with compound (or vehicle control) generally as described in Example C.1 at 1 hour prior to and four hours after abdomal closure and once daily over a period of 14 days. Markers to be investigated for IRI of kidney include […] creatinine levels in the serum along with histopathological analysis.

C57BL/6 mice [3] = test: Traumatic brain injury, controlled cortical impact model (Example C.5); assay type: in vivo, mouse; conditions: compared to vehicle control, 24 h after CCI, FIG. 4
Protocol: FIG. 4: Efficiency of a compound disclosed herein in an animal model of traumatic brain injury.
Briefly, to test such utility of compounds disclosed herein, male C57BL/6 mice are anesthetised prior to the induction of trauma. Core body temperature is maintained at 37° C. using a feedback-controlled heating pad connected to a rectal probe. To induce trauma, a craniotomy is prepared over the right parietal cortex. Controlled cortical impact (CCI) is delivered perpendicular to the surface of the brain with a custom-made CCI applicator for mice using the following parameters: 8 m/s velocity, 3 mm diameter, 1 mm brain displacement and 150 ms duration. Following CCI, the skull is closed by affixing the removed bone flap using veterinary-grade tissue glue (Vetbond, 3M, St. Paul, Minn.). Compounds are administered at 1 mg/Kg or 10 mg/Kg (dissolved in 40% PEG) 15 minutes after TBI induction and 40% PEG is included as vehicle control. The animals are recovered from anesthesia in an incubator heated to 33° C. Animals are sacrificed and the brain is removed 24 h after CCI and immediately frozen on crushed dry ice and stored at −80° C. […] The sections are stained with cresyl violet for quantifying the area of contused brain, and contusion volume is calculated and the effect of the compounds tested observed following analysis of such data.

## Clc1cccc(CNC2=Nc3ccccc3NC23CCNCC3)c1 [N-2]
SH-SY5Y cells
  Percentage cell survival after TNF-alpha-induced apoptosis: Non-inhibition of apoptotic cell-death
C57BL/6 mice [1]; liver IRI, compared to vehicle control, FIG. 2A
  serum marker for liver cell damage GPT: significant reduction
C57BL/6 mice [1]; liver IRI, compared to vehicle control, FIG. 2B
  serum marker for liver cell damage GOT: significant reduction
C57BL/6 mice [1]; FIG. 2
  serum GPT and GOT, IRI+Cmpd compared to Sham+vehicle: No significant difference
C57BL/6 mice [2]
  survival of mice suffering kidney-ischemic reperfusion injury: Improved survival
C57BL/6 mice [3]
  contusion volume in the brains of mice following traumatic brain injury: trend of a (non-significant) positive effect
